According to patent US6117849A, “S-(+)-adenosylmethionine and 3'-azido-2', 3'-dideoxy-nucleoside complexes as potent inhibitors of HIV-replication” (Symbio Herborn Group GmbH & Co., priority 1996, dated 2000):
Where “and” joins values, the source holds several entries; their conditions need not be identical. Identical values can stand only once. Like-named read-outs stand apart in the source and are kept apart here. One block for each compound: values may come before it.

Legend:
[1] = tested on: T-lymphocyte cell cultures; assay: in vitro; conditions: for therapeutic index: in vitro, considering cytotoxicity
Experimental: (§1) Viability of the T cells was determined by means of a tetrazolium salt (MTT) metabolic assay.--(see also: Schwartz, O., et al., AIDS Rcs. Hum. Retroviruses, 4 441-448, 1988).

[2] = target: T1, reverse transcriptase (RT) (HIV-1 M:B_HXB2R, UniProt P04585); type: biochemical; set-up: A2: RT in cord-blood lymphocyte cultures infected with HIV from an AIDS patient; conditions: for Ki: RT
Experimental: The second in-vitro test uses the enzymatic activity of RT, testing the kinetic and inhibitory action of the molecular complexes. The cloning of the RT in biologically active form made it possible to have large quantities of the RT enzyme available for these studies (RT from Sigma, lot # R 9376).
The steady state reaction conditions for RT are chosen that approximate physiological conditions are met: pH 7.45 (37° C.), ionic strength of 150 mM, routinely a buffer was employed consisting of 50 mM TRIS-HCl, 100 mM KCl, 5 mM MgCl2, the addition of 10 μg/mL bovine serum albumin were included. […] The aforementioned precautions designed to avoid potential reduction of SAM in the presence of DTT are taken into accounts to preclude any distortions of the kinetic behavior of the RT enzyme in the presence of the various substrates e.g. as our molecular compounds. […] The enzyme concentrations of RT was approx. 20 nM, T-P (template-primer) […] and 25 μM of [^3 H]-dNTP (assay conditions are modified fro those of Mayunder et al., J. biol. Chem.,263, 15657, 1988). […] In case both parameters are effected to the same extent, then the inhibition is uncompetitive. In order to facilitate the difference between SAM kinetics and those for the molecular complexes we studied first SAM kinetics and subsequently the kinetics in the presence of the molecular complexes. […] Similar experiments have been carries out with dGTP.
The enzyme was assayed with 50 nM primer sites on poly (rA): oligo (dT), and variable concentrations of [^3 H] dTP as substrates in a reaction mixture as described above at pH 7.5 (37° C.).

[3] = target: T1, reverse transcriptase (RT); type: biochemical; set-up: A2: RT in cord-blood lymphocyte cultures infected with HIV from an AIDS patient; conditions: no DTT
in vitro = conditions: t-lymphocyte cultures
Experimental: as §1

[4] = target: T1, reverse transcriptase (RT); assay: In vitro RT inhibition assay with F-dUP/F-dU or THF; type: biochemical; set-up: A2: RT in cord-blood lymphocyte cultures infected with HIV from an AIDS patient
HIV-1 isolate of HIV IIB = assay: HIV replication in de novo infected lymphocyte cultures, viral core protein p24 endpoint; type: cell-based, HIV-1 (in human peripheral blood lymphocytes)
Experimental: For this purpose, SAM has been tested in a dose response titration ranging from 1000 μg/mL to 10 μg/mL final concentrations for the ability to inhibit HIV replication in de novo infected cells. Endpoint in this assay was the quantitative determination of the concentration of the viral core protein p24 as described by Mueller et al. (Mueller, Ch., Moritz, R., Prigge, G., Weitzel, D., Kunze, R., Kage, A., Koettgen, E., Fresenius Z. Anal. Chem.,330, 352-353, 1988). […] The toxicity testing of cellular proliferation was performed according to J. Mosmann (J. Immunological Methods, 65, 55-63, 1983). […] All experiments were carried out in triplicate cultures, including those for the various concentrations of the molecular complexes tested.--The lymphocytes were infected with a standardized preparation of HIV-1 isolate of HIV IIB. The cells were sedimented by low speed centrifugation, the sediment resuspended in the assay buffer (standard), and the resuspended cells were inoculated by adjusting to the following conditions: 100 ng of viral core protein p24/mL and 3200 pg HIV RNA/mL, respectively. Normally 3×10^8 lymphocytes were suspended in 1 mL if the HIV inoculum, and incubated at 37° C. for 60 minutes. After washing the cells twice with 50 mL of culture medium the cells were resuspended at a concentration of 3×10^6 cells/mL in culture medium which contains 10 units/mL of human recombinant interleukin-2. 100 μL of this cell suspension were added to 100 μL of the pre-diluted solution of the compounds to be tested, without adding any salt or protein. The entire assay was cultivated in humidified atmosphere in the presence of 5% CO2 at 37° C. After the 4th day of infection the viral replication was determined in the lymphocyte cultures. The end point of the titration was the determination of the viral core protein p24 in the supernatant of each of the lymphocyte cultures. 150 μL of the supernatant were removed and transferred to a vial containing 50 μL/well SDS at a final concentration of 0.08% (w/w). The concentration of the synthesized p24 by the HIV infected cells was determined according to Mueller et al., using recombinant p24 as a standard for calibration.

[5] = AZT; cited from earlier work
[6] = in vivo; cited from earlier work
[7] = SAM and AZT levels in HIV-infected patients (plasma, CSF)
[8] = target: T1, reverse transcriptase (RT); conditions: read-out: inhibiting concentration, 50% of RT activity; tosylate-bis-sulfate salt, with DTT; cited from earlier work
[9] = tested on: human peripheral blood lymphocytes; assay: Cell toxicity by proliferation test in lymphocyte cultures
Experimental: For this purpose, SAM has been tested in a dose response titration ranging from 1000 μg/mL to 10 μg/mL final concentrations for the ability to inhibit HIV replication in de novo infected cells. Endpoint in this assay was the quantitative determination of the concentration of the viral core protein p24 as described by Mueller et al. (Mueller, Ch., Moritz, R., Prigge, G., Weitzel, D., Kunze, R., Kage, A., Koettgen, E., Fresenius Z. Anal. Chem.,330, 352-353, 1988). […] The toxicity testing of cellular proliferation was performed according to J. Mosmann (J. Immunological Methods, 65, 55-63, 1983). […] All experiments were carried out in triplicate cultures, including those for the various concentrations of the molecular complexes tested.--The lymphocytes were infected with a standardized preparation of HIV-1 isolate of HIV IIB. The cells were sedimented by low speed centrifugation, the sediment resuspended in the assay buffer (standard), and the resuspended cells were inoculated by adjusting to the following conditions: 100 ng of viral core protein p24/mL and 3200 pg HIV RNA/mL, respectively. […] After the 4th day of infection the viral replication was determined in the lymphocyte cultures. […] The concentration of the synthesized p24 by the HIV infected cells was determined according to Mueller et al., using recombinant p24 as a standard for calibration.

HIV = HIV replication in T-lymphocyte cell cultures (cytotoxic effect and p24 production); type: cell-based
[10] = Stability / half-life in human plasma (chiral HPLC, fluorescence)
Source text: In order to determine the stability of these complexes in physiological conditions, the half-life times of the compounds were estimated in human plasma after separation on a chiral column and using a HPLC apparatus applying, monitoring the fluorescence of both components at 310 nm (excitation at 278 nm) after complete separation of the two peaks.

IL-β, IL-2 = assay: Cytokine biosynthesis after stimulation of lymphocytes; type: cell-based; conditions: after phytohemagglutination stimulation
[11] = Intracellular metabolism to the triphosphate; type: in vitro ADME
[12] = rapidly dried in vacuo, water-free
bone marrow stem cells = conditions: vs AZT
[13] = tested on: mitochondrial DNA replication; conditions: vs AZT
[14] = no DTT, pH 7.45-7.5, 37° C., read-out: KM
[15] = HIV replication, p24, standard conditions
[16] = addition of human serum albumin
[17] = 1 h, complex: 400 mg SAM equivalent 250 mg AZT

Compound: 3'-azido-2',3'-2'-fluorothymidine [F))/AZT (AZT (2']
therapeutic index [1]: 7.000 | Ki ([2]; no DTT): 100 ± 10 nM | Km [2, 14]: 0.5 ± 0.01 µM | kcat [3]: 0.0483 s⁻¹

Compound: 3'-azido-2',3'-dideoxyadennine [SAM/AZA]
therapeutic index [1]: 4.500 | Ki ([2]; no DTT): 280 ± 20 nM | Km [2, 14]: 0.71 ± 0.02 µM | kcat [3]: 0.0283 s⁻¹

Compound: 3'-azido-2',3'-dideoxyguanosine [SAM/AZG]
therapeutic index [1]: 5.700 | Ki ([2]; no DTT): 240 ± 10 nM | Km [2, 14]: 0.7 ± 0.02 µM | kcat [3]: 0.05 s⁻¹

Compound: 3'-azido-2',3'-dideoxyinosine [SAM/AZI]
Ki ([2]; no DTT): 130 ± 15 nM | Km ([2]; read-out: KM): 0.41 ± 0.03 µM | kcat [3]: 0.035 s⁻¹

Km ([2]; read-out: KM): 0.69 ± 0.015 µM | kcat [3]: 0.035 s⁻¹
Compound: 3'-azido-2',3'-dideoxyuridine [SAM/AZU]

Compound: C[S+](CC[C@H](N)C(=O)O)C[C@H]1O[C@@H](n2cnc3c(N)ncnc32)[C@H](O)[C@@H]1O (single isomer, unassigned) [SAM C1]
selectivity ratio (in vitro): 2.1 | Km [2]: 0.53 ± 0.02 µM | kcat [2]: 0.317 s⁻¹ and 0.25 s⁻¹

Compound: c1ncc2c(n1)NCCN2 [5,6,7,8-tetrahydropteridine (THF), 5,6,7,8-tetrahydropteridine]
effect on inhibition of RT [4]: no significant inhibition of the RT

Compound: Cc1cn([C@H]2C[C@H](N=[N+]=[N-])[C@@H](CO)O2)c(=O)[nH]c1=O [AZT, 3'-azido-2',3'-deoxythymidine]
inhibition of HIV replication (HIV-1 isolate of HIV IIB; FIG. 1, p24): inhibited HIV replication in a dose dependent response | plasma half-life [5]: 1 h | side effects upon prolonged administration [6]: peripheral neuropathological effects | toxicity at increased dose [6]: bone marrow toxicity | Cmax ([7]; human, plasma, 250 mg): 2500 ng/mL | kcat [2]: approx. 1.5 sect^-1

Compound: O=c1[nH]c(=O)n([C@H]2C[C@H](O)[C@@H](CO)O2)cc1F [F-dU]
effect on inhibition of RT [4]: no influence on the inhibition of RT

Compound: [3H]C12CNc3nc(N)[nH]c(=O)c3N1CN(c1ccc(C(=O)N[C@@H](CCC(=O)O)C(=O)O)cc1)C2 (stereo partly drawn) [N^5, N^10-methylene-6-[^3 H]-THF]
effect on inhibition of RT [4]: no significant inhibition of the RT

Compound: C[S+](CC[C@H](N)C(=O)O)C[C@H]1O[C@@H](n2cnc3c(N)ncnc32)[C@H](O)[C@@H]1O (stereo partly drawn) [SAM ts HSO4 H2 SO4]
selectivity ratio (in vitro): 2.4 | IC50 [8]: 250000 to 501000 nM | Km [2]: 0.51 ± 0.02 µM | kcat [2]: 0.333 s⁻¹ and 0.3 s⁻¹

Compound: Nc1ccn([C@H]2CC[C@@H](CO)O2)c(=O)n1 [ddC]
side effects upon prolonged administration [6]: peripheral neuropathological effects

Compound: (+)-SAM-3'-azido-2',3'-dideoxythymidine complex [SAM/AZT]
inhibitory constant Ki(1), at 50% inhibition (HIV-1 isolate of HIV IIB; [15]): ≈ 0.9 ng/mL | inhibitory constant Ki(2), at 50% inhibition (HIV-1 isolate of HIV IIB; [15]): ≈ 12.5 μg/mL | Ki (first, low) (HIV-1 isolate of HIV IIB; [16]): 0.0005 to 0.0008 µg/mL | Ki (second, high) (HIV-1 isolate of HIV IIB; [16]): ~10 µg/mL | Ki (first, low) (HIV-1 isolate of HIV IIB; ionic strength 0.075 M): 0.0006 to 0.0008 µg/mL | Ki (second, high) (HIV-1 isolate of HIV IIB; ionic strength 0.075 M): 8 to 10 µg/mL | increase of the cell toxicity ([9]; SAM-AZT complex compared with SAM alone): approx. 35% | cell toxicity with respect to AZT alone ([9]; vs AZT alone): considerable of reduction of cell toxicity | maximum inhibition (HIV; inhibition of the cytotoxic effect): 100% | IC50 (HIV; p24 production, read-out: IC50, inhibition of p24 production): 10 nM | 50% cytotoxicity ([1]; MTT, as mass concentration of complex): ~15.5 µg/mL | CC50 ([1]; read-out: 50% cytotoxicity, MTT): 250000 nM | half-life of SAM ([10]; from AZT-SAM complex): more than 10 h | half-life of SAM, average ([10]; from AZT-SAM complex): 12 h | half-life of AZT ([10]; from the complex, depends on load): 2 to 3 h | cytokine biosynthesis (IL-β, IL-2) (IL-β, IL-2): enhanced significantly | accumulation / conversion to triphosphate [11]: does not accumulate, but being readily converted to the triphosphate derivative | hygroscopicity [12]: hygroscopic | toxicity for bone marrow stem cells (bone marrow stem cells): less toxic than AZT | toxicity/inhibition of mitochondrial DNA replication [13]: less toxic as well as inhibitory to mitochondrial DNA replication | AZT level (almost 50% of that in plasma) [7, 17]: 0.25 µg/mL | SAM level [7, 17]: 600 ng/mL | pharmacokinetic behaviour ([7]; HIV patients): lower elimination rate for SAM | dose reduction of AZT ([7]; administered as complex with SAM): approx. 30% | increase of SAM and AZT levels in CSF and plasma ([7]; approved dose 250 mg AZT at 4 h intervals): 25-30% | AZT level in plasma ([7]; complex: 400 mg SAM equivalent 250 mg AZT): 0.543 µg/mL
